System: TGF-β1 mRNA
Assay: Glucose- or PMA-induced TGF-β1 mRNA overexpression in porcine mesangial cells (RT-PCR, capillary electrophoresis)
Format: cell-based
Conditions: PMA; 10 μg/ml GAG; PMA alone 312; mean of 2 determinations
Excerpt: To assess the inhibitory activity of the GAG action on TGF-β1 overexpression an in vitro assay was established. In this assay structurally distinct GAGs were investigated for their activity to inhibit stimulated TGF-β1 mRNA overexpression in cultured target cell. For the development of glomerulosclerosis (e.g. diabetes) mesangial cells are one major pathological target. Mesangial cells were isolated, characterized and grown as decribed by Kolm et al. Am. J. Physiol. 270: F812-F821, 1996. Cells were stimulated with PMA in the presence and absence of a variety of 10 μg/ml of GAGs and related compounds. Cellular mRNA TGF-β1I levels were determined as decribed in Example II.
The separation and the precise quantification of the PCR products was performed on a Biofocus 3000 capillary electrophoresis system equipped with a laser-induced fluorescence detector (Bio-Rad, Munich, Germany) using an argon-ion laser. Excitation power was approximately 3.5 mW at =488 nm, and fluorescence emission was detected after passing through a 520 nm band pass filter. […] For on-column DNA fluorescence labeling, 1 μl Syber Green I (Molecular probes, Eugene, Or, USA) was addes per ml. […] The migration time for the PCR products was 5.2 min for TGF-β1 (161 bp) and 6.5 min for GAPDH (983 bp) All peak areas were calculated automatically using Biofocus Integration Software. […]

Q: With chitosan-6-sulfate as the substance, how does the “TGF-β1 mRNA” value read?
A: 116 % of control
